Assays:
Format in all cases: biochemical
TBK1 = target: T1, TBK1 (Homo sapiens, UniProt Q9UHD2); test: ADP-Glo Kinase Assay, inhibition activity on TBK1
T1 construct: purchased Promega V3991
T1 sequence (Q9UHD2 1-729): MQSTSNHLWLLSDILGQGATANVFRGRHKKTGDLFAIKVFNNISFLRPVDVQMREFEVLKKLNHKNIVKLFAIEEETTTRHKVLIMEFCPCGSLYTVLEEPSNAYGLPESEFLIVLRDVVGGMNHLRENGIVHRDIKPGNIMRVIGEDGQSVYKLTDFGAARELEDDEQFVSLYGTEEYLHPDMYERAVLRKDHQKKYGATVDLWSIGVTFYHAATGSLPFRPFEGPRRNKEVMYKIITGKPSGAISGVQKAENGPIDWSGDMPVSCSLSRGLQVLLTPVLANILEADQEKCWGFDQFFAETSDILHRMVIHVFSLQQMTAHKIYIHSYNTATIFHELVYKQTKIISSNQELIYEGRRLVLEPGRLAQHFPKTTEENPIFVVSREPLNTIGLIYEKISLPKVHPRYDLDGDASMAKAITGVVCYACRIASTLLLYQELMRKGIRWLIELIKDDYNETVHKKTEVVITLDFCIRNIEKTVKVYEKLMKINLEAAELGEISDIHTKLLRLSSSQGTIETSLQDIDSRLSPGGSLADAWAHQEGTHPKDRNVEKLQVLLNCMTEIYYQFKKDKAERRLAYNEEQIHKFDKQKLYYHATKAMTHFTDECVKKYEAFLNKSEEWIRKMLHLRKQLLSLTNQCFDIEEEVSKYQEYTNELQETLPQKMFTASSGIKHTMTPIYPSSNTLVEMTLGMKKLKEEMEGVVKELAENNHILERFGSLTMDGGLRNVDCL
Description: (§1) The inhibition activities on TNIK, IKKε and TBK1 were measured by a luminometer, TNIK/IKKε/TBK1 Kinase Enzyme System (Promega, Ca# V4158; Invitrogen, PR8031B, Promega, Ca# V3991) and ADP-Glo Kinase Assay using ADP-Glo™ Kinase Analysis Kit (Promega, Ca# V9101) and a kinase reaction buffer [40 mM Tris(pH 7.5), 20 mM MgCl2, 0.1 mg/mL BSA] in accordance with the manufacturer's protocol.

IKKε = target: T2, IKKε (Homo sapiens, UniProt Q14164); test: ADP-Glo Kinase Assay, inhibition activity on IKKε
T2 construct: purchased Invitrogen PR8031B
T2 sequence (Q14164 1-716): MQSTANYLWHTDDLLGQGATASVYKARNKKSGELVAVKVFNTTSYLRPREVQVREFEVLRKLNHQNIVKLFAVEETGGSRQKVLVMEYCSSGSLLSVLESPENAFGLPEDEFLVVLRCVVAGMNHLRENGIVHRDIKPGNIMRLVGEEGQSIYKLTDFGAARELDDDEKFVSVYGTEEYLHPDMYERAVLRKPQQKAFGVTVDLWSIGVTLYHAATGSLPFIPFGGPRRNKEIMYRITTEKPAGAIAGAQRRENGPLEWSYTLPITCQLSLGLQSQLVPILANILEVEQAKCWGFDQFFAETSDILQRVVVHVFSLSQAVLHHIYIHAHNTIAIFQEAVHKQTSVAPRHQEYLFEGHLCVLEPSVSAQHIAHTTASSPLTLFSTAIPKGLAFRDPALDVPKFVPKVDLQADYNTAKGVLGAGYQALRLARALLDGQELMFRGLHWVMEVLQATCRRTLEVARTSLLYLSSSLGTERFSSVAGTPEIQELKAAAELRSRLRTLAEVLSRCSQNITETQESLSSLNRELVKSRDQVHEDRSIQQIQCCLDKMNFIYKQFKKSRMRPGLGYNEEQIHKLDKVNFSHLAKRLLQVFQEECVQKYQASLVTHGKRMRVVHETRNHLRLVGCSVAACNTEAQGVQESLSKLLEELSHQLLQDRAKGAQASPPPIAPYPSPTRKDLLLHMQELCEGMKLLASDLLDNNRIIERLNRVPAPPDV
Description: as §1

TNIK = target: T3, TNIK (Homo sapiens, UniProt Q9UKE5); test: ADP-Glo Kinase Assay, inhibition activity on TNIK; conditions: read-out: TNIK
T3 construct: purchased Promega V4158
T3 sequence (Q9UKE5 1-367 limits assumed): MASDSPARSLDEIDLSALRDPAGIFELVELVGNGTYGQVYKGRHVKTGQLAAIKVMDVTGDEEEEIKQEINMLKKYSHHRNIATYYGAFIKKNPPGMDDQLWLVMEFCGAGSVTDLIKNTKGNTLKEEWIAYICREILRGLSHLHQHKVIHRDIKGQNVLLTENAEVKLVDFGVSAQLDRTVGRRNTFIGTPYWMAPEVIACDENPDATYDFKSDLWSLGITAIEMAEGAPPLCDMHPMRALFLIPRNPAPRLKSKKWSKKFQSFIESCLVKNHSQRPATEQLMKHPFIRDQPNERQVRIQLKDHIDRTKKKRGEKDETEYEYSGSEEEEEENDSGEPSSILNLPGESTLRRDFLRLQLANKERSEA
Description: as §1

| IC50 (TBK1) | IC50 (IKKε) | IC50 (TNIK) | Compound |
| --- | --- | --- | --- |
| 0.09 µM | 0.28 µM |  | Nc1ccc(-c2ccnc(Nc3ccccc3)n2)c2c1C(=O)NC2 [Example 72, 7-Amino-4-(2-(phenylamino)pyrimidin-4-yl)isoindolin-1-one] |
| 0.38 µM | 0.87 µM |  | Cc1ccc(Nc2nccc(-c3ccc(N)c4c3CNC4=O)n2)cc1 [Example 83, 7-Amino-4-(2-(p-tolylamino)pyrimidin-4-yl)isoindolin-1-one] |
| 0.2 µM | 0.44 µM |  | Cc1cccc(Nc2nccc(-c3ccc(N)c4c3CNC4=O)n2)c1 [Example 84, 7-Amino-4-(2-(m-tolylamino)pyrimidin-4-yl)isoindolin-1-one] |
| 0.64 µM |  |  | Nc1ccc(-c2c[nH]c3ncc(-c4ccccc4)cc23)c2c1C(=O)NC2 [Example 79, 7-Amino-4-(5-phenyl-1H-pyrrolo[2,3-b]pyridin-3-yl) isoindolin-1-one] |
| 0.027 µM | 0.2 µM |  | CC(=O)Nc1cccc(Nc2nccc(-c3ccc(N)c4c3CNC4=O)n2)c1 [Example 77, N-(3-((4-(7-amino-1-oxoisoindolin-4-yl)pyrimidin-2-yl)amino)phenyl)acetamide] |
| > 10 µM | > 10 µM |  | Nc1ccc(-c2ccnc(N3CCOCC3)n2)c2c1C(=O)NC2 [Example 82, 7-Amino-4-(2-morpholinopyrimidin-4-yl)isoindolin-1-one] |
| 0.1 µM | 0.35 µM |  | CC(=O)Nc1ccc(Nc2nccc(-c3ccc(N)c4c3CNC4=O)n2)cc1 [Example 76, N-(4-((4-(7-amino-1-oxoisoindolin-4-yl)pyrimidin-2-yl)amino)phenyl)acetamide] |
| 0.051 µM | 0.051 µM |  | COc1cccc(Nc2nccc(-c3ccc(N)c4c3CNC4=O)n2)c1 [Example 70, 7-Amino-4-(2-((3-methoxyphenyl)amino)pyrimidin-4-yl) isoindolin-1-one] |
| 9.23 µM | > 10 µM |  | Nc1ccc(-c2ccnc3[nH]ccc23)c2c1C(=O)NC2 [Example 80, 7-Amino-4-(1H-pyrrolo[2,3-b]pyridin-4-yl)isoindolin-1-one] |
| 1.24 µM | 2.64 µM |  | COc1cccc(Nc2cc(-c3ccc(N)c4c3CNC4=O)ccn2)c1 [Example 68, 7-Amino-4-(2-((3-methoxyphenyl)amino)pyridin-4-yl) isoindolin-1-one] |
| 0.043 µM | 0.56 µM |  | Nc1ccc(-c2ccnc(Nc3ccc(F)cc3)n2)c2c1C(=O)NC2 [Example 74, 7-Amino-4-(2-((4-fluorophenyl)amino)pyrimidin-4-yl) isoindolin-1-one] |
| 0.15 µM | 0.16 µM |  | Cn1cc(Nc2nccc(-c3ccc(N)c4c3CNC4=O)n2)cn1 [Example 71] |
| > 10 µM |  |  | COc1cccc(Nc2ccnc(-c3ccc(N)c4c3CNC4=O)c2)c1 [Example 69, 7-Amino-4-(4-((3-methoxyphenyl)amino)pyridin-2-yl) isoindolin-1-one] |
| 0.032 µM | 0.056 µM |  | Nc1ccc(-c2c[nH]c3ncc(-c4ccc(CN5CCOCC5)s4)cc23)c2c1C(=O)NC2 [Example 86, 7-Amino-4-(5-(5-(morpholinomethyl)thiophen-2-yl)-1H-pyrrolo[2,3-b]pyridin-3-yl)isoindolin-1-one] |
| 0.19 µM | 1.39 µM |  | COc1cccc(Nc2cc(-c3ccc(N)c4c3CNC4=O)ncn2)c1 [Example 78, 7-Amino-4-(6-((3-methoxyphenyl)amino)pyrimidin-4-yl) isoindolin-1-one] |
| 0.035 µM | 0.35 µM |  | Nc1ccc(-c2ccnc(Nc3cccc(F)c3)n2)c2c1C(=O)NC2 [Example 73, 7-Amino-4-(2-((3-fluorophenyl)amino)pyrimidin-4-yl) isoindolin-1-one] |
| 0.11 µM | 0.36 µM |  | COc1ccc(Nc2nccc(-c3ccc(N)c4c3CNC4=O)n2)cc1 [Example 75, 7-Amino-4-(2-((4-methoxyphenyl)amino)pyrimidin-4-yl) isoindolin-1-one] |
|  |  | 0.24 µM | O=C(Nc1ccc(-c2cccc3ncccc23)c2c1C(=O)NC2)c1ccc(F)cc1 [Example 215, 4-Fluoro-N-(3-oxo-7-(quinolin-5-yl)isoindolin-4-yl)benzamide] |

Further lines, the compound ahead of its results:

| Compound | IC50 (TBK1) | IC50 (IKKε) | IC50 (TNIK) |
| --- | --- | --- | --- |
| COc1cccc(Nc2nccc(-c3ccc(N(C)C)c4c3CNC4=O)n2)c1 [Example 266, 7-(Dimethylamino)-4-(2-((3-methoxyphenyl)amino)pyrimidin-4-yl)isoindolin-1-one] | 0.75 µM | 1.96 µM |  |
| CN(C)c1ccc(-c2ccnc(Nc3cccc(F)c3)n2)c2c1C(=O)NC2 [Example 267, 7-(Dimethylamino)-4-(2-((3-fluorophenyl)amino)pyrimidin-4-yl)isoindolin-1-one] | 3.98 µM | 5.51 µM |  |
| CC(=O)Nc1ccc(-c2ccnc(Nc3cccc(F)c3)n2)c2c1C(=O)NC2 [Example 163, N-(7-(2-((3-fluorophenyl)amino)pyrimidin-4-yl)-3-oxoisoindolin-4-yl) acetamide] | 4 µM | > 10 µM |  |
| CCCCNc1ccc(-c2ccnc(Nc3cccc(OC)c3)n2)c2c1C(=O)NC2 [Example 268, 7-(Butylamino)-4-(2-((3-methoxyphenyl)amino)pyrimidin-4-yl)isoindolin-1-one] | 0.32 µM | 0.88 µM |  |
| CCCCN(C)c1ccc(-c2ccnc(Nc3cccc(OC)c3)n2)c2c1C(=O)N(C)C2 [Example 270, 7-(Butyl(methyl)amino)-4-(2-((3-methoxyphenyl)amino)pyrimidin-4-yl)-2-methylisoindolin-1-one] | > 10 µM | > 10 µM |  |
| CCC(=O)Nc1ccc(-c2ccnc(Nc3cccc(OC)c3)n2)c2c1C(=O)NC2 [Example 166, N-(7-(2-((3-methoxyphenyl)amino)pyrimidin-4-yl)-3-oxoisoindolin-4-yl)propionamide] | 0.094 µM | > 10 µM |  |
| CC(=O)Nc1ccc(-c2ccnc(Nc3cccc(C)c3)n2)c2c1C(=O)NC2 [Example 164, N-(3-oxo-7-(2-(m-tolylamino)pyrimidin-4-yl)isoindolin-4-yl) acetamide] | 0.35 µM | 0.83 µM |  |
| COc1cccc(Nc2nccc(-c3ccc(NC(C)=O)c4c3CNC4=O)n2)c1 [Example 162, N-(7-(2-((3-methoxyphenyl)amino)pyrimidin-4-yl)-3-oxoisoindolin-4-yl)acetamide] | 0.1 µM | 0.63 µM |  |
| Cc1cccc(Nc2ccc(NC(=O)c3ccc(NCCN4CCCC4)cc3)c3c2CNC3=O)c1 [Example 449, N-(3-oxo-7-(m-tolylamino)isoindolin-4-yl)-4-((2-(pyrrolidin-1-yl)ethyl)amino)benzamide] |  |  | 0.59 µM |
| O=C(Nc1ccc(-c2cc(F)ccc2F)c2c1C(=O)NC2)c1ccccc1 [Example 32, N-(7-(2,5-difluorophenyl)-3-oxoisoindolin-4-yl)benzamide] |  |  | 1 µM |
| COc1ccc(Nc2ccc(NC(=O)c3ccccc3)c3c2CNC3=O)cc1 [Example 416, N-(7-((4-methoxyphenyl)amino)-3-oxoisoindolin-4-yl) benzamide] |  |  | 3.7 µM |
| CSc1ccc(C(=O)Nc2ccc(-c3ccccc3)c3c2C(=O)NC3)cc1 [Example 131, 4-(Methylthio)-N-(3-oxo-7-phenylisoindolin-4-yl)benzamide] |  |  | 2.3 µM |
| COc1ccccc1-c1ccc(NC(=O)c2ccc(NCCCN3CCCCC3)cc2)c2c1CNC2=O [Example 307, N-(7-(2-methoxyphenyl)-3-oxoisoindolin-4-yl)-4-((3-(piperidin-1-yl)propyl)amino)benzamide] |  |  | 0.19 µM |

Source: patent US9856216B2, “Compounds as TNIK, IKKε and TBK1 inhibitors and pharmaceutical composition comprising same” (GREEN CROSS CORPORATION, priority 2015, dated 2018)
